Values of other authors, collected in patent publication US20240180871A1, “MODIFIED-RELEASE SILODOSIN COMPOSITIONS AND USE THEREOF IN METHODS FOR MALE CONTRACEPTION” (PHARMAJOR INCORPORATED, priority 2022, published 2024).
Read-outs that look alike come from different tables or passages of the source.

| solubility (in acetic acid) | solubility (in alcohol) | solubility (in water) | Compound | effect on semen in male subjects (male subjects; during BPH treatment, in some cases, KOBAYASHI 2009, SAKATA 2012) | sex-related adverse effects associated with administration (male subjects; known in the art) |
| --- | --- | --- | --- | --- | --- |
| very soluble | freely soluble | very slightly soluble | C[C@H](Cc1cc2c(c(C(N)=O)c1)N(CCCO)CC2)NCCOc1ccccc1OCC(F)(F)F [(R)-silodosin, (−)-(R)-1-(3-hydroxypropyl)-5-[2-[[2-[2-(2,2,2-trifluoroethoxy)phenoxy]ethyl]amino]propyl]indoline-7-carboxamide] |  |  |
|  |  |  | CC(Cc1cc2c(c(C(N)=O)c1)N(CCCO)CC2)NCCOc1ccccc1OCC(F)(F)F (centres unmarked) [silodosin, 1-(3-hydroxypropyl)-5-[2-[[2-[2-(2,2,2-trifluoroethoxy)phenoxy]ethyl]amino]propyl]indoline-7-carboxamide] | causing aspermia, azoospermia, or severe oligozoospermia | discomfort upon ejaculation, decrease in the quality of orgasm, decrease in erectile function, and reduction of sexual desire |
